# According to patent publication US20240325437A1, “METHODS AND COMPOSITIONS FOR USE IN IMPROVING ADAPTIVE IMMUNITY IN THE ELDERLY POPULATION” (Technion Research & Development Foundation Limited, priority 2023, published 2024):
# Entries after “also recorded” stand apart in the source; their conditions may differ. Read-outs that look alike come from different tables or passages of the source.
# Columns and labels:
# [1] = tested on: CD3+ T cells derived from young mice; assay: Viability of young T cells cultured with heme or spleen extract (Zombie, flow cytometry); format: cell-based, mouse; conditions: for viability of T cells: with and without agent
# Text: (§1) T cell isolation and culture. T cells were harvested from mice spleens and/or lymph nodes (inguinal, axillary, brachial, mandibular, and jejunal), and purified by magnetic separation. Depending on the specific experiment, either bulk CD3^+ T cells or bulk CD3^+CD4^+ T cells or pure naïve (CD3^+CD4^+CD62L^+ CD441^lo CD25^−) T cells were purified using commercially available kits (StemCell, 19765A, 19852A, 19851A), following the manufacturer instructions. The protocol for isolating pure naïve T cells from aged mice was modified, as additional antibodies were added to the initial antibody cocktail to overcome changes in T cell population composition in the aged. Specifically, biotinylated anti-mouse/human CD44 (BioLegend, IM7), and biotinylated anti-mouse CD25 (miltenyi 130-123-860, REA568), were added to the company's premade antibody cocktail for negative selection of lymphocytes. Furthermore, the present inventors performed a step of positive selection of CD62L^+ naïve T cells, using anti-mouse CD62L microbeads (miltenyi, 130-049-701) and magnetic columns (miltenyi, 130-042-201). Primary T cells were cultured at 37° C. and 5% CO2 in RPMI media, supplemented with: 10% FBS, 10 mM Hepes, penicillin/streptomycin, and 0.035% beta-mercaptoethanol. For activation, cells were cultured on plates pre-coated (overnight at 4° C.) with anti-CD3 (2 μg/mL; clone 145-2C11, BioXCell) and anti-CD28 (4 μg/mL, clone 37.51; BioXCell). Resting cells were supplemented with 5 ng/ml recombinant murine IL-7 (PEPROTECH, 217-17). In some experiments, cell cultures were supplemented with hemin chloride (cayman, 16487), ammonium iron (III) citrate (thermos scientific, A11199.30), BSA (Sigma-Aldrich, A9647), and spleen extract, at different concentrations, as indicated in relevant experiments.
# Collection of a interstitial fluid-enriched fraction (referred to as spleen extract; SE). Spleens from young or aged mice were harvested, and gently dissociated ontop of a […] cell strainer, in 5 mL PBS or RPMI, 5 min centrifugation at 1350 RPM to separate the cellular pellet from the fluidic fraction, enriched with interstitial components.
# (§2) Flow cytometry. […] Intracellular ferrous iron was measured using FerroOrange (Dojindo F374).
# [2] = tested on: CD3+ T cells derived from young mice; assay: Proliferation of young T cells stimulated ex vivo with anti-CD3/anti-CD28 (cell trace violet); format: cell-based, mouse
# Text: as §1, §2
# aged T cells [3] = assay: Survival of aged T cells ex vivo; format: cell-based, mouse; conditions: aged T cells (not shown)
# Experimental: (§3) Flow cytometry. For cell-surface staining, cultured T cells or freshly isolated T cells were resuspended in a separation buffer (PBS containing 2% FBS and 2 mM EDTA) and incubated for 20 min, on ice, with an antibody mix, supplemented purified anti-mouse CD16/32 (Biolegend, clone 93). For intracellular staining, True-Nuclear™ Transcription Factor Buffer Set (Biolegend, 424401) was used, following the manufacturer's protocol. […] Cell viability was assessed by Zombie violet or Zombie NIR™ Fixable Viability Kits (423114, 423105, biolegend). Cell proliferation was assessed by cell trace violet proliferation kit (C34557, Invitrogen). Lysosomal activity was determined using a lysosomal intracellular activity assay kit (ab234622) according to the manufacturer's instructions. Intracellular ferrous iron was measured using FerroOrange (Dojindo F374). Cells were incubated with […] of FerroOrange in HBSS at 37° C. for 40 minutes, and analyzed by flow cytometry. For Lysotracker staining, cells were incubated with 62.5 nM of lysotracker deep red (Invitrogen L12492) in HBSS at 37° C. for 40 minutes and analyzed by flow cytometry. All data were collected on the Attune NxT Flow Cytometer (Thermo Fisher) and analyzed using FlowJo (BD).
# aged T cells [4] = assay: Proliferation of aged T cells activated ex vivo (CellTrace Violet); format: cell-based, mouse; conditions: for aged T cells proliferation: aged T cells activated ex vivo with and without agent
# Text: as §1, §2
# aged T cells [5] = assay: Labile iron (FerroOrange) in aged T cells; format: cell-based, mouse
# Experimental: as §2
# (§4) Functional assays and intracellular ferrous iron staining. Intracellular ferrous iron was measured using FerroOrange (Dojindo, F374). […] All assays were analyzed by flow cytometry.
# [6] = tested on: CD3+ T cells derived from the spleen of young and aged mice; assay: Ferroptosis tolerance: viability of young and aged T cells treated with RSL; format: cell-based, mouse; conditions: increasing doses of RSL, 48 hrs, young vs aged T cells; listed as RSL
# Text: (§5) T cell isolation and culture. T cells were harvested from mice spleens and/or lymph nodes (inguinal, axillary, brachial, mandibular, and jejunal), and purified by magnetic separation. Depending on the specific experiment, either bulk CD3^+ T cells or bulk CD3^+CD4^+ T cells or pure naïve (CD3^+CD4^+CD62L^+ CD441^lo CD25^−) T cells were purified using commercially available kits (StemCell, 19765A, 19852A, 19851A), following the manufacturer instructions. The protocol for isolating pure naïve T cells from aged mice was modified, as additional antibodies were added to the initial antibody cocktail to overcome changes in T cell population composition in the aged. Specifically, biotinylated anti-mouse/human CD44 (BioLegend, IM7), and biotinylated anti-mouse CD25 (miltenyi 130-123-860, REA568), were added to the company's premade antibody cocktail for negative selection of lymphocytes. Furthermore, the present inventors performed a step of positive selection of CD62L^+ naïve T cells, using anti-mouse CD62L microbeads (miltenyi, 130-049-701) and magnetic columns (miltenyi, 130-042-201). […]
# as §2
# Albumin is the most abundant heme binding protein in the serum. […] The present inventors hypothesized that the unique protein signature measured in aged T cells (FIG. 2H) allows them to survive this hostile microenvironment. […]
# [7] = tested on: CD4+ and CD8+ T cells derived from the aged spleen; assay: Ferroptosis resistance to RSL3 of T cells from aged spleen after adoptive transfer; format: cell-based, mouse; conditions: CD4+ vs CD8+ T cells from aged spleen, TdTomato+ and TdTomato−
# Text: Adoptive T cell transfer. Young T cells were isolated from spleens of young OTII td-tomato transgenic mice (8-12 weeks-old) by magnetic isolation (StemCell), as described above. […] Two weeks following cell transfer, mice were euthanized and spleen and lymph nodes (inguinal, axillary, brachial, mandibular, and jejunal) were extracted for further analysis.
# The present inventors hypothesized that ferroptosis resistance was accomplished by maintaining low cellular iron levels. To test this, FerroOrange was employed, a fluorescent probe that interacts with cellular ferrous ion (Fe^+2), to measure changes in labile iron in T cells following activation. In young T cells, labile iron pools increased as early as 9 hr post-activation and continued rising until 72 hrs (FIG. 5A). Iron levels varied across different populations as Ferro-Orange fluorescence intensity was higher in CD8^+ compared to CD4^+ T cells, pre- and post-activation (FIG. 5B). […] A major pathway for increasing cellular iron is the uptake of transferrin-bound iron, mediated by the transferrin receptor (TFR1), also known as CD71. […] In agreement with the observed differences in labile iron, CD8^+ T cells expressed higher levels of CD71 compared to CD4^+ T cells (FIG. 5F). […]
# [8] = tested on: OVA-specific OTI and OTII T cells in aged recipients; conditions: aged mice, OVA/Alum i.p., FAC i.v. on days 1 and 3, spleen on day 5
# Experimental: Control mice were injected with saline. […] Control mice received saline.
# aged T cells [9] = conditions: 24 hr post-activation
# Experimental: Functional assays and intracellular ferrous iron staining. Intracellular ferrous iron was measured using FerroOrange (Dojindo, F374). Following extracellular staining, cells were incubated with 1 μM of FerroOrange in HBSS at 37° C. for 30 minutes in a 5% CO2 incubator, and immediately taken for analysis. For Mitochondrial ferrous iron measurement, cells were incubated with 5 μM of Mito-FerroGreen (Dojindo, M489) in HBSS at 37° C. for 30 minutes in a 5% CO2 incubator, washed twice. […] All assays were analyzed by flow cytometry.
# aged T cells [10] = tested on: aged T cells
# Experimental: as §3
# [11] = tested on: T cells response to vaccination; conditions: cited from earlier work
# T cells [12] = assay: Lysosomal mass (lysotracker; flow cytometry and fluorescent microscopy); format: cell-based, mouse; conditions: T cells +/- activation +/- heme
# Experimental: as §2
# Fluorescent microscopy. Cells were stained simultaneously with lysotracker deep red and FerroOrange in HBSS as described above, and imaged using Leica DMI8 inverted fluorescent microscope.
# T cells [13] = assay: CD63 expression on T cells by flow cytometry; format: cell-based, mouse; conditions: T cells cultured with heme at different concentrations
# Experimental: as §2
# young T cells [14] = assay: Lipid peroxidation (BODIPY 581/591 C11) in young T cells; format: cell-based, mouse; conditions: T cells exposed to heme
# [15] = tested on: T cells derived from young mice; assay: Immunophenotyping of young T cells after ex vivo incubation with heme; format: cell-based, mouse; conditions: young T cells incubated with heme, without TCR-mediated stimulation
# Text: as §5, with “130-042-201). Primary T cells were cultured at 37° C. and 5% CO2 in RPMI media, supplemented with: 10% FBS, 10 mM Hepes, penicillin/streptomycin, and 0.035% beta-mercaptoethanol.” for “130-042-201).”
# as §2
# T cells [16] = assay: Lysosomal intracellular activity assay; format: cell-based, mouse; conditions: T cells activated in the presence of heme
# resting young T cells = assay: FOXO1 levels in resting young T cells by flow cytometry; format: cell-based, mouse; conditions: resting young T cells incubated ex vivo for 4-48 hr
# Experimental: as §2
# Lysosomal dysfunction results in accumulation of late endosomes, also referred to as multi vesicular bodies (MVBs), that are identified by expression of CD63. […] FOXO1 regulates expression of TFEB, the master regulator of lysosomal biogenesis^17. Moreover, FOXO1 expression is critical for maintaining T cell quiescence, and its deficiency induces T cell senescence^18. The present inventors hypothesized that the microenvironment in the aged spleen suppressed FOXO1 expression, thus inducing T cell priming (FIG. 7E-G) and dysregulates lysosomal biogenesis and activity. To test this hypothesis, FOXO1 levels were quantified in resting young T cells that were incubated ex vivo with either heme or SE.
# [17] = tested on: CD3+ T cells derived from young mice; assay: Expression of ferritin, HO-1 and CD39 in young T cells by flow cytometry; format: cell-based, mouse; conditions: young T cells exposed to heme
# Text: as §1, §2
# young T cells [18] = assay: Cellular ROS (DCFDA) in young T cells; format: cell-based, mouse; conditions: T cells exposed to heme, 48 hr
# Experimental: as §4
compound,measurement,setting,value
CC(=O)N(O)CCCCCNC(=O)CCC(=O)N(O)CCCCCNC(=O)CCC(=O)N(O)CCCCCN [DFO],cell viability,[1]; young T cells cultured with spleen extract plus DFO,partially rescued cell viability
"CC(=O)N[C@@H](CS)C(=O)O [NAC, N-acetyl cysteine]",viability of T cells,[1]; young T cells activated 48 hr in the presence of SE,improved cell viability
same,viability of T cells,[1]; young T cells activated 48 hr in the presence of heme,improved cell viability
same,proliferation,"[2]; young T cells activated 48 hr in the presence of SE, with and without agent",improved
same,proliferation,"[2]; young T cells activated 48 hr in the presence of heme, with and without agent",improved
same,aged T cells survival,aged T cells [3],neither BSA nor NAC improved
same,aged T cells proliferation,aged T cells [4],neither BSA nor NAC improved
"C=C[C@H]1C[N@@]2CC[C@H]1C[C@H]2[C@H](O)c1ccnc2ccc(OC)cc12 [Quinine, quinine]",labile iron pools (Ferro-Orange),aged T cells [5]; aged CD3+ T cells cultured with quinine (15 uM),increases labile iron pools
same,aged T cells proliferation,aged T cells [4],rescued their proliferative capacity
COC(=O)c1ccc([C@@H]2c3[nH]c4ccccc4c3C[C@@H](C(=O)OC)N2C(=O)CCl)cc1 [RSL3],cell viability after RSL (ferroptosis tolerance),[6],aged T cells survived even high levels of the drug; also recorded: aged T cells are significantly more tolerant to ferroptosis than young T cells
same,resistance to RSL3-induced ferroptosis,[7],more resistant to RSL3-induced ferroptosis
N-methyl protoporphyrin IX,proliferation,aged T cells [4]; aged T cells supplemented with FAC plus FECH inhibitor,prevented the alleviating effect on proliferation
ferric ammonium citrate [FAC],proliferation of antigen specific CD4+ T cells (OTII),[8],improved proliferation
same,proliferation of antigen specific CD8+ T cells (OTI),[8],not affected
same,mitochondrial iron pools,aged T cells [9],replenished mitochondrial iron pools
same,CD71 expression,aged T cells [10]; FAC-supplemented aged CD8+ T cells (not shown),the shift in CD71 expression was smaller
same,CD71 expression,aged T cells [10]; FAC-supplemented aged T cells,downregulation of CD71
same,T cells response to vaccination,"[11]; hepcidin-treated mice, in vivo administration of FAC",rescued
same,labile iron pools (FerroOrange),aged T cells [5]; aged T cells activated ex vivo in the presence of FAC,increased labile iron pools
same,aged T cells proliferation,aged T cells [4],significant improvement in proliferative capacity
hemin chloride [heme],cell viability,"[1]; resting young CD3+ T cells with IL-7, heme for 48 hr","significantly reduced cell viability, in a dose-dependent manner"
same,cell viability,"[1]; resting young CD3+ T cells with IL-7, heme for 48 hr, listed as Heme",reduces cell viability
same,lysosomal mass,T cells [12],downregulated lysosomal mass
same,CD63 expression,T cells [13],"induced CD63 expression, in a dose-dependent manner"
same,lipid peroxidation,young T cells [14],large induction in lipid peroxidation
same,T cell differentiation / naïve T cell pool,[15],sufficient to induce T cell differentiation and deplete the naïve T cell pool
same,proliferation,"[2]; young T cells activated 48 hr, exposure to heme or SE alone",completely blocked
same,lysosomal activity,T cells [16],suppressed
same,FOXO1 levels,resting young T cells,dropped within 4 hr and continued to drop during the 48 hr of incubation
same,CD39 expression,[17],also induced; also recorded: sufficient to induce CD39
same,expression of HO-1,[17],sufficient to induce expression
same,expression of ferritin,[17],sufficient to induce expression
same,CD39 expression,[17]; listed as Heme,induces expression
same,expression of HO-1,[17]; listed as Heme,induces expression
same,expression of ferritin,[17]; listed as Heme,induces expression
same,increase in cellular ROS,young T cells [18],~2 fold
hepcidin,T cells response to vaccination,[11]; mice treated with hepcidin,diminished
holo-transferrin: iron saturated transferrin,aged T cells proliferation,aged T cells [4],significant improvement in proliferative capacity
